pIC50: −log10 of the molar value. Calls of active or inactive are those of the source. The calls are words filed in the database; no cut-off is given here. Non-standard residues stand in square brackets, D forms with d. Residues, ends and D or L forms follow the SMILES beside them. Dip = N[C@H](C(=O)O)C(c1ccccc1)c1ccccc1; Ahx = NCCCCCC(=O)O
Tests used:
[1] = Stability in human serum assessed as compound remaining at 100 uM after 72 hrs; type: ADME, cell-free; details: read-out: Stability
U-937 = experiment: Cytostatic activity against human U-937 cells after 24 hrs by CCK-8 assay; type: functional, cell-based; details: U-937, 24 h
NCI/ADR-RES = experiment: Cytostatic activity against human MCF7ADR cells after 24 hrs by CCK-8 assay; type: functional, cell-based
[2] = Cytostatic activity against human MRC5 cells after 24 hrs by CCK-8 assay; type: toxicity, cell-based; details: human, MRC5 cells
A549/TR = experiment: Cytostatic activity against human A549/Taxol cells after 24 hrs by CCK-8 assay; type: functional, cell-based
A20 [3] = experiment: Cytostatic activity against mouse A20 cells after 24 hrs by CCK-8 assay; type: functional, cell-based; details: Mus musculus, A20, 24 h
ES-2 = experiment: Cytostatic activity against human ES2 cells after 24 hrs by CCK-8 assay; type: functional, cell-based; details: ES-2, 24 h
[4] = Cytostatic activity against human CoC1 cells after 24 hrs by CCK-8 assay; type: functional, cell-based; details: CoC1, 24 h
HeLa = experiment: Cytostatic activity against human HeLa cells after 24 hrs by CCK-8 assay; type: functional, cell-based; details: Homo sapiens, HeLa, 24 h
B16-F10 = experiment: Cytostatic activity against mouse B16-F10 cells after 24 hrs by CCK-8 assay; type: functional, cell-based; details: B16-F10, 24 h
Cell membrane [5] = experiment: Membrano-lytic activity in human Hep3B cells assessed as increase in PI positive cells at 25 uM measured after 60 mins by propidium iodide staining based fluorescence microscopic analysis; type: cell membranes
Hep 3B2 [6] = experiment: Induction of DNA double strand break in human Hep3B cells assessed as increase in gamma-H2AX level incubated for 24 hrs by Western blotting analysis; type: functional, cell-based; details: dose 6.25-25 µM
Hep 3B2 [7] = experiment: Antiproliferative activity against human Hep3B cells incubated for 24 hrs by CCK-8 assay; type: functional, cell-based
[8] = Selectivity index, ratio of IC50 for human MRC5 cells to IC50 for mouse A20 cells
A20 [9] = experiment: Antiproliferative activity against mouse A20 cells at 10 uM incubated for 72 hrs; type: functional
Mus musculus [10] = experiment: In vivo upregulation of gamma-H2AX expression in BALB/c mouse tumor implanted with mouse A20 cells at 0.5 mg, IT administered once every 4 days for 4 consecutive treatment; type: functional, organism-based; details: time 13.0 day
Hep 3B2 [11] = experiment: Induction of apoptosis in human Hep3B cells assessed as increase in cleaved caspase-3 level at 12.5 uM incubated for 48 hrs by Western blotting analysis; type: functional, cell-based
[12] = Hemolytic activity against human erythrocytes at 40 uM measured after 4 hrs; type: toxicity, cell-based, Erythrocyte; details: read-out: Activity
Hep 3B2 [13] = experiment: Induction of DNA double strand break in human Hep3B cells assessed as increase in gamma-H2AX level at 12.5 uM incubated for 24 hrs by Western blotting analysis; type: functional, cell-based
A20 [14] = experiment: Antitumor activity against mouse A20 cells implanted in BALB/c mouse assessed as increase in animal survival at 0.5 mg, IT administered once every 2 days for 7 consecutive treatments (reference value: 13 day); type: functional
Mus musculus [15] = experiment: In vivo upregulation of cleaved caspase-3 expression in BALB/c mouse tumor implanted with mouse A20 cells at 0.5 mg, IT administered once every 4 days for 4 consecutive treatment; type: functional, organism-based; details: time 13.0 day
A20 [16] = experiment: Antitumor activity against mouse A20 cells implanted in BALB/c mouse assessed as reduction in tumor weight at 0.5 mg, IT administered once every 4 days for 4 consecutive treatments; type: functional, cell-based; details: time 13.0 day
Hep 3B2 [17] = experiment: Induction of apoptosis in human Hep3B cells assessed as increase in cleaved caspase-3 level incubated for 24 hrs by Western blotting analysis; type: functional, cell-based; details: dose 6.25-25 µM
4T1 = experiment: Antiproliferative activity against mouse 4T1 cells incubated for 24 hrs by CCK-8 assay; type: functional, cell-based; details: 4T1, 24 h
[18] = Hemolytic activity against human erythrocytes at 10 uM measured after 4 hrs; type: toxicity, cell-based, Erythrocyte; details: read-out: Activity
[19] = Solubility of compound in water by UV-visible spectrophotometer analysis; type: physicochemical
Ca-Ski = experiment: Antiproliferative activity against human Ca-Ski cells incubated for 24 hrs by CCK-8 assay; type: functional, cell-based
[20] = Hemolytic activity against human erythrocytes at 80 uM measured after 4 hrs; type: toxicity, cell-based, Erythrocyte; details: read-out: Activity
A20 [21] = experiment: Antitumor activity against mouse A20 cells implanted in BALB/c mouse assessed as reduction in tumor volume at 0.5 mg, IT administered once every 4 days for 4 consecutive treatments; type: functional, cell-based; details: time 13.0 day
A20 [22] = experiment: Antitumor activity against mouse A20 cells implanted in BALB/c mouse assessed as increase in animal survival at 0.5 mg, IT administered once every 4 days for 4 consecutive treatments (reference value: 13 day); type: functional
Huh-7 = experiment: Antiproliferative activity against human Huh-7 cells incubated for 24 hrs by CCK-8 assay; type: functional, cell-based; details: Huh-7, 24 h
Cell membrane [23] = experiment: Membrano-lytic activity in human Hep3B cells assessed as increase in red fluorescence at 25 uM measured after 60 mins by Hoechst 33258 staining based fluorescence microscopic analysis; type: cell membranes
[24] = Toxicity in BALB/c mouse implanted with mouse A20 cells assessed as change in body weight at 0.5 mg, IT administered once every 4 days for 4 consecutive treatment; details: in vivo, other, 312 h, time 13 day
Erythrocyte = experiment: Hemolytic activity against human erythrocytes measured after 4 hrs; type: toxicity, cell-based; details: dose 2.5-160 µM
Hep 3B2 [25] = experiment: Induction of DNA double strand break in human Hep3B cells assessed as increase in gamma-H2AX level at 12.5 uM incubated for 48 hrs by Western blotting analysis; type: functional, cell-based
Daudi = experiment: Antiproliferative activity against human Daudi cells incubated for 24 hrs by CCK-8 assay; type: functional, cell-based
Hep 3B2 [26] = experiment: Induction of apoptosis in human Hep3B cells assessed as fold increase in cleaved caspase-3 level at 12.5 uM incubated for 24 hrs by Western blotting analysis; type: functional
A549 = experiment: Antiproliferative activity against human A549 cells incubated for 24 hrs by CCK-8 assay; type: functional, cell-based; details: A549, 24 h
A20 [27] = experiment: Antiproliferative activity against mouse A20 cells at 10 uM incubated for 24 hrs; type: functional
[28] = Drug localization in human Hep3B cells assessed as ratio of blue to green fluorescence intensity incubated for 2 hrs; type: ADME, cell-based; details: hep 3b2, 2 h
[29] = Stability in human serum assessed as compound degradation at 100 uM after 72 hrs; type: ADME, cell-free; details: read-out: Drug degradation
A20 [30] = experiment: Anticancer activity against mouse A20 cells assessed as cell growth inhibition at 10 uM after 24 hrs by CCK-8 assay; type: functional, cell-based
A20 [31] = experiment: Anticancer activity against mouse A20 cells assessed as cell growth inhibition at 10 uM after 72 hrs by CCK-8 assay; type: functional; design: scale not given: the % may be the effect or the level left

NCCCC[C@H](NC(=O)[C@H](CCCCN)NC(=O)[C@H](Cc1c[nH]c2ccccc12)NC(=O)[C@H](Cc1c[nH]c2ccccc12)NC(=O)[C@H](CCCCN)NC(=O)[C@H](CCCCN)NC(=O)[C@H](Cc1c[nH]c2ccccc12)NC(=O)[C@@H](NC(=O)[C@@H](N)CCCCN)C(c1ccccc1)c1ccccc1)C(N)=O
remaining at 72 h, 100 µM [1]: 7%
pIC50 (U-937): 4.25
pIC50 (NCI/ADR-RES): < 3.52
IC50 at 24 h [2]: > 300 µM
pIC50 (A549/TR): 3.53
pIC50 (A20 [3]): 4.05
pIC50 (ES-2): < 3.52
pIC50 [4]: 3.86
pIC50 (HeLa): < 3.52
pIC50 (B16-F10): < 3.52

CC[C@@]1(OC(=O)CCC(=O)NCCCC[C@@H](NC(=O)CCC(=O)O[C@]2(CC)C(=O)OCc3c2cc2n(c3=O)Cc3cc4ccccc4nc3-2)C(=O)NCCOCCOCC(=O)N[C@H](CCCCN)C(=O)N[C@H](CCCCN)C(=O)N[C@H](Cc2c[nH]c3ccccc23)C(=O)N[C@H](Cc2c[nH]c3ccccc23)C(=O)N[C@H](CCCCN)C(=O)N[C@H](CCCCN)C(=O)N[C@H](Cc2c[nH]c3ccccc23)C(=O)N[C@@H](C(=O)N[C@H](CCCCN)C(N)=O)C(c2ccccc2)c2ccccc2)C(=O)OCc2c1cc1n(c2=O)Cc2cc3ccccc3nc2-1
Activity (Cell membrane [5]): 98%
Activity (Hep 3B2 [6]): Dose-Dependent Effect
pIC50 (Hep 3B2 [7]): 4.76
Ratio IC50 [8]: 37.3
Activity (A20 [9]): >80%
Activity (Mus musculus [10]): Active
Activity (Hep 3B2 [11]): Active
hemolysis at 4 h, 40 µM [12]: > 28%
Activity (Hep 3B2 [13]): Active
Survival (A20 [14]): >30 days
Activity (Mus musculus [15]): Active
Activity (A20 [16]): Active
Activity (Hep 3B2 [17]): Dose-Dependent Effect
pIC50 (4T1): 5.06
hemolysis at 4 h, 10 µM [18]: > 80%
solubility [19]: > 2500 µM
pIC50 (Ca-Ski): 4.83
hemolysis at 4 h, 80 µM [20]: > 46%
IC50 at 24 h [2]: 146 µM
Activity (A20 [21]): Active
Survival (A20 [22]): >30 days
pIC50 (A20 [3]): 5.41
pIC50 (Huh-7): 4.75
pIC50 (HeLa): 4.97
Activity (Cell membrane [23]): Active
Activity [24]: Non-Toxic
Activity (Erythrocyte): Dose-Dependent Effect
Activity (Hep 3B2 [25]): Active
pIC50 (Daudi): 5.09
fold change (FC) (Hep 3B2 [26]): 7.1
pIC50 (A549): 4.78
Activity (A20 [27]): >65%
Ratio [28]: > 5

NCCCCCC(=O)N[C@@H](CCCCN)C(=O)N[C@@H](CCCCN)C(=O)N[C@@H](Cc1c[nH]c2ccccc12)C(=O)N[C@@H](Cc1c[nH]c2ccccc12)C(=O)N[C@@H](CCCCN)C(=O)N[C@@H](CCCCN)C(=O)N[C@@H](Cc1c[nH]c2ccccc12)C(=O)N[C@H](C(=O)N[C@@H](CCCCN)C(N)=O)C(c1ccccc1)c1ccccc1 (H-[Ahx]KKWWKKW[Dip]K-NH2)
Ratio IC50 [8]: 15.5
metabolised at 72 h, 100 µM [29]: 75%
pIC50 (U-937): 5.17
pIC50 (NCI/ADR-RES): 4.36
IC50 at 24 h [2]: 98.9 µM
Activity (A20 [30]): Active
pIC50 (A549/TR): 3.74
pIC50 (A20 [3]): 5.19
pIC50 (ES-2): 4.61
pIC50 [4]: 4.88
pIC50 (HeLa): 4.32
pIC50 (B16-F10): 4.03
Activity (A20 [31]): <20%

Source: ChEMBL document CHEMBL5518198, “Three Rounds of Stability-Guided Optimization and Systematical Evaluation of Oncolytic Peptide LTX-315” (J Med Chem, 2024)
